Data published in patent publication US12503452B2 (Curza Global, LLC, priority 2019, dated 2025).
Structures can show the parent of a compound that is named as a salt. Where two headings read alike, the source gives them in different places.

Tests used:
E. faecalis (Ef) = test: Broth microdilution minimum inhibitory concentration (MIC); assay type: cell-based; conditions: Enterococcus faecalis, read-out: Ef + bicarb MIC
Procedure, shortened: (§1)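 Two-fold compound series, 8 points in triplicate; medium CAMHB ± NaHCO3 (6.25 or 25 mM final) or ± 0–50% heat-inactivated human serum; inoculum 5×10^4 CFU/well; growth-method 0.5 McFarland suspensions; modified CLSI M07-A9.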

P. aeruginosa (Pa) = test: as above; assay type: cell-based; conditions: Pseudomonas aeruginosa, read-out: Pa MIC + bicarb
Procedure, shortened: as §1

E. coli (Ec) = test: as above; assay type: cell-based; conditions: Escherichia coli, read-out: E. coli + bicarb MIC
Procedure, shortened: as §1

A. baumannii (Ab) = test: as above; assay type: cell-based; conditions: Acinetobacter baumannii, read-out: Ab + bicarb MIC
Procedure, shortened: as §1

S. aureus (Sa) = test: as above; assay type: cell-based; conditions: Staphylococcus aureus, read-out: Sa + bicarb MIC
Procedure, shortened: as §1

[1] = molecular target: Rabbit Reticulocyte Lysate (eukaryotic protein synthesis); test: Rabbit reticulocyte lysate luciferase assay (inhibition of eukaryotic protein synthesis); assay type: biochemical; conditions: read-out: Rabbit reticulocyte IC50 (μM/% inhib.)
Procedure, shortened: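 Compounds were tested in 8-point 2-fold dilution series for blocking luciferase synthesis in nuclease-treated rabbit reticulocyte lysate (30° C., 90 minutes). Luminescence read-out, corrected by no-RNA background, was expressed as % inhibition against water-only reactions.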

[2] = system: E. coli S30 extract (bacterial protein synthesis); test: E. coli S30 extract coupled transcription-translation luciferase assay (inhibition of bacterial protein synthesis); assay type: biochemical; conditions: read-out: S30 IC50 (μM/% inhib.)
Procedure, shortened: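 Luminescent read-out of luciferase made from pBESTluc DNA by E. coli S30 extract after 1 h at 37 °C with compound in an 8-point 2-fold series. Background came from no-DNA reactions. Percent inhibition was calculated against water-only controls.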

[3] = E. faecalis, growth medium supplemented with sodium bicarbonate
[4] = P. aeruginosa, growth medium supplemented with sodium bicarbonate
[5] = E. coli, growth medium supplemented with sodium bicarbonate
[6] = A. baumannii, growth medium supplemented with sodium bicarbonate
[7] = S. aureus, growth medium supplemented with sodium bicarbonate
[8] = class by IC50 or % inhibition @ 1 μM
[9] = E. faecalis, growth medium with sodium bicarbonate
[10] = P. aeruginosa, growth medium with sodium bicarbonate
[11] = E. coli, growth medium with sodium bicarbonate
[12] = A. baumannii, growth medium with sodium bicarbonate
[13] = S. aureus, growth medium with sodium bicarbonate

SMILES	MIC (E. faecalis (Ef); [3]) [µg/mL]	MIC (P. aeruginosa (Pa); [4]) [µg/mL]	MIC (E. coli (Ec); [5]) [µg/mL]	MIC (A. baumannii (Ab); [6]) [µg/mL]	MIC (S. aureus (Sa); [7]) [µg/mL]	IC50 [1, 8] [µM]	IC50 [2, 8] [µM]	MIC (E. faecalis (Ef)) [µg/mL]	MIC (P. aeruginosa (Pa)) [µg/mL]	MIC (E. coli (Ec)) [µg/mL]	MIC (A. baumannii (Ab)) [µg/mL]	MIC (S. aureus (Sa)) [µg/mL]	MIC (E. faecalis (Ef); [9]) [µg/mL]	MIC (P. aeruginosa (Pa); [10]) [µg/mL]	MIC (E. coli (Ec); [11]) [µg/mL]	MIC (A. baumannii (Ab); [12]) [µg/mL]	MIC (S. aureus (Sa); [13]) [µg/mL]	IC50 ([1]; % inhibition @ 1 μM) [µM]	IC50 ([2]; % inhibition @ 1 μM) [µM]
CC(C)(N)C(=O)N1CCN(C(=O)Nc2ccn(-c3ccc(CCCN4CC(N)C4)cc3)c(=O)n2)CC1 [Compound 32]	> 32	> 32	8 to 32	> 32	8 to 32	> 1	> 1												
CC1C[C@@H](NCc2ccc(-n3ccc(NC(=O)N4CCN(C(=O)C(C)(C)N)CC4)nc3=O)cc2)CC[C@@H]1N (stereo partly shown) [Compound 335, hydrochloride salt]						> 1	< 0.5	> 32	> 32	< 8	> 32	< 8							
CC(C)(N)C(=O)N1CCN(C(=O)Nc2ccn(-c3ccc(CC(=O)N4CCC(N)CC4)cc3)c(=O)n2)CC1 [Compound 269]						> 1	> 1						> 32	> 32	8 to 32	> 32	> 32		
CC(C)(N)C(=O)N1CCN(C(=O)Nc2ccn(-c3ccc(CN[C@@H]4CC[C@H](N)C4)cc3)c(=O)n2)CC1 [Compound 114]	> 32	> 32	< 8	> 32	> 32	> 1	< 0.5												
CC(C)(N)C(=O)N1CCN(C(=O)Nc2ccn(-c3ccc(CN[C@H]4CC[C@@H](N)CC4)cc3)c(=O)n2)CC1 [Compound 120]	8 to 32	> 32	< 8	> 32	< 8	> 1	< 0.5												
CC(C)(N)C(=O)N1CCN(C(=O)Nc2ccn(-c3ccc(CNC4CC(N)CC(O)C4)cc3)c(=O)n2)CC1 (stereo not shown) [Compound 342, hydrochloride salt]						> 1	< 0.5	> 32	> 32	8 to 32	> 32	> 32							
CC(Cc1ccc(-n2ccc(NC(=O)N3CCN(C(=O)C(C)(C)N)CC3)nc2=O)cc1)N[C@@H]1CC[C@H](N)C1 (stereo partly shown) [Compound 172]						> 1	< 0.5						< 8	> 32	< 8	> 32	< 8		
CC(Cc1ccc(-n2ccc(NC(=O)N3CCN(C(=O)C(C)(C)N)CC3)nc2=O)cc1)N(C)C1CCC(CN)CC1 (stereo not shown) [Compound 153]	> 32	> 32	< 8	> 32	< 8	> 1	> 1												
CC(C)(N)C(=O)N1CCN(C(=O)Nc2ccn(-c3ccc(CNC4C[C@@H](N)C[C@@H](N)C4)cc3)c(=O)n2)CC1 (stereo partly shown) [Compound 321, hydrochloride salt]						> 1	< 0.5	> 32	> 32	8 to 32	> 32	> 32							
CC(Cc1ccc(-n2ccc(NC(=O)N3CCN(C(=O)C(C)(C)N)CC3)nc2=O)cc1)N(C)[C@H]1CC[C@H](N)C1 (stereo partly shown) [Compound 163]						> 1	> 1						> 32	> 32	8 to 32	> 32	8 to 32		
CC(N)C1CCN(CCc2cccc(-n3ccc(NC(=O)N4CCN(C(=O)C(C)(C)N)CC4)nc3=O)c2)CC1 (stereo not shown) [Compound 34]	< 8	> 32	< 8	> 32	< 8	> 1	< 0.5												
CC(Cc1ccc(-n2ccc(NC(=O)N3CCN(C(=O)C(C)(C)N)CC3)nc2=O)cc1)N1CCC(C2CNC2)CC1 (stereo not shown) [Compound 379]													> 32	> 32	< 8	> 32	< 8	> 1	> 1
CC(C)(N)C(=O)N1CCN(C(=O)Nc2ccn(-c3ccc(CCN4CCCC(N)CC4)c(C(F)(F)F)c3)c(=O)n2)CC1 (stereo not shown) [Compound 142]	< 8	8 to 32	< 8	8 to 32	< 8	> 1	< 0.5												
